Experiments:
Src, Fyn, Yes and Lyn = conditions: blocking Src, read-out: potency; cited from earlier work
[1] = system: APPswe/PS1ΔE9 transgenic mice; experiment: Morris water maze in AD transgenic mice
Protocol: Spatial learning is plotted as latency to find a hidden platform in a Morris water maze at age 11-12 months. […] Mean±SEM for the indicated numbers of mice per genotype/treatment group.
Memory performance during a 60 sec probe trial, 24 hr after learning, where time spent in the target quadrant was measured. Random chance is 15 sec. Mean±SEM for n=9-14 in each group.
The dosing was on a twice a day schedule by oral gavage and control groups received vehicle. The identity of the active versus vehicle groups and the transgene status was unknown to the researchers handling the mice and collecting the behavioral data. […] The data from the two cohorts were pooled. Different tests were performed at 1-3 weeks (early) or 4-6 weeks (late) time points. Mice were tested in the Morris water maze at both ages, and also in Novel Object Recognition tests at the later time points. After memory testing was complete, the animals were sacrificed without ceasing their drug regimen for histological analysis.
After the learning trials, the mice were tested the subsequent day in a memory test, the 60 second probe trial with the hidden platform removed (FIG. 4). Random chance results in 15 sec occupancy in each quadrant.

[2] = system: mice with closed head injury (CHI) and chronic variable stress (CVS); experiment: Immunohistochemistry of cerebral cortex after head injury plus stress; format: in vivo, mouse; conditions: subacute TBI/Stress mice
From the text: FIGS. 16A-16F illustrate the finding that AZD0530 treatment prevents phospho-Tau accumulation after head injury plus stress. […] Boxed area is shown at higher magnification inset. Scale bar, m. FIG. 16B: PHF-1 IHC quantification using ImageJ software measuring total stained area, yielded significant differences amongst the three groups. Data are mean±SEM. n=5/group, each dot is one mouse. One way ANOVA: F(2,12)=9.967, p=0.0028, Tukey's multiple comparison test: SV vs IV: p=0.0077, IV vs IA: p=0.0046. […] Scale bar, 20 μm. […] Data are mean±SEM. n=5/group, each dot is one mouse. […] Scale bar, 20 μm. […] Data are mean±SEM. n=5/group, each dot is one mouse.
Immunohistochemistry was performed as previously described (Kaufman et al., 2015, Ann Neurol 77:953-971) with slight modifications. Forty m coronal sections of the right hemisphere were cut with a Leica VT1000S Vibratome. Antigen retrieval was performed on the forty m free-floating sections by incubating three slices from each mouse in 1× Reveal decloaker buffer (Biocare Medical) in 24-well-plates for 10 minutes at 90° C. in an oven and then cooled down at room temperature for 10 minutes. The antigen retrieval step was done for PHF1, AT8, and GFAP stainings. Sections were permeabilized with 0.1% Triton X-100 at room temperature for 5 minutes for PHF1 and SV2A staining and for 30 minutes for CD68/Ibal, AT8, and GFAP. All sections were blocked with 10% donkey, horse, or goat serum in PBS for one hour at room temperature. The sections were then incubated in primary antibody in 4% donkey, horse, or goat serum in PBS overnight at room temperature. For SV2A and PHF1 stainings, primary antibodies were incubated at 4° C. rather than room temperature. […]
For imaging and analysis of sections from the transgenic Tauopathy studies, Nikon Eclipse Ti Spinning Disc Confocal Microscope was used with a 40×1.3 NA oil-immersion lens in Cargille immersion oil. […] The dentate gyrus, CA1, and CA3 of mice were imaged and the percent positive area for each staining was analyzed with a macro in ImageJ or a pipeline in CellProfiler. […]

[3] = system: subjects with mild to moderate AD; experiment: Phase Ib multiple ascending dose study, safety and tolerability; format: in vivo; conditions: human, 50, 100 or 125 mg PO daily
From the text: Subjects were enrolled in three cohorts of 8 subjects each.

[4] = system: Fyn (p-SFK) and eEF2 phosphorylation in cortical neurons; experiment: Aβo-induced Fyn activation and eEF2 phosphorylation in cortical neurons (immunoblot); format: cell-based, mouse
Protocol: FIG. 2A: DIV21 cortical neurons from wild type or Prnp−/− mice were treated with or without Aβo for 5 min. Whole cell lysates were analyzed by anti-phospho-eEF2, anti-eEF2, or anti-PrP^C immunoblot. Aβo increased p-eEF2/eEF2 ratio to 210±20% of baseline in WT cultures (mean±sem, n=3), but there was no significant increase in Prnp−/− cultures. FIG. 2B: DIV21 cortical neurons from wild type mice were treated with the indicated human control or AD brain extracts (30 μg total protein/ml) for 5 min. Whole cell lysates were analyzed by anti-phospho-eEF2 or anti-eEF2 immunoblot. AD, but not control (Con), brain extracts increased p-eEF2/eEF2 ratio to 200±10% of untreated cultures (mean±sem, n=4). FIG. 2C: Wild type cortical neurons were treated with or without Aβo for 15 min. […] Whole cell lysates were analyzed by anti-phospho-SFK, anti-Fyn, anti-phospho-eEF2, or anti-eEF2 immunoblot. GAPDH served as a loading control. FIG. 2D: Quantification of phospho-eEF2 level normalized to eEF2 immunoreactivity from four independent experiments. Mean±sem; *, P<0.05, n.s., not significant; One-way ANOVA, with Tukey post-hoc pairwise comparisons.
Because spine turnover is dependent on protein translation machinery, and because both Aβo and Fyn have been linked to mGluR5, a downstream effector of mGluR5-regulated protein translation, the eukaryotic elongation factor 2 (eEF2), was considered. The eEF2 pathway is regulated by phosphorylation and is dysregulated in AD. A3o treatment of cortical neurons increases eEF2 phosphorylation at 5 min (FIG. 2A). Genetic analysis confirmed that the Aβo effect on eEF2 phosphorylation depends on PrP^C (FIG. 2A).
It was tested whether phosphorylation of eEF2 induced by Aβo depends on AZD0530-sensitive Fyn kinase activation. […] Thus, AZD0530 prevented Aβo/PrP-induced, Fyn-dependent neuronal signaling in vitro.

[5] = saracatinib 1 hour prior to Aβo, Aβo 15 min

CN1CCN(CCOc2cc(OC3CCOCC3)c3c(Nc4c(Cl)ccc5c4OCO5)ncnc3c2)CC1 [saracatinib, N-(5-chloro-benzo[d][1,3]dioxol-4-yl)-7-(2-(4-methylpiperazin-1-yl)ethoxy)-5-(tetrahydro-2H-pyran-4-yloxy)quinazolin-4-amine]
IC50 (Src, Fyn, Yes and Lyn): 2 to 10 nM
latency to hidden platform (learning trials) ([1]; APPswe/PS1ΔE9 mice, 5 mg/kg/d b.i.d. oral gavage, 4-5 weeks): eliminated the transgenic deficit
probe trial, preference for target quadrant ([1]; APPswe/PS1ΔE9 mice, 5 mg/kg/d, 5 weeks): same strong preference for the target quadrant as did WT mice
learning and memory tests ([1]; shorter treatment duration or lesser doses): did not have significant effects
probe trial, time in target quadrant ([1]; wild type mice with or without 5 weeks saracatinib, 60 second trial, chance 15 sec): ~30 s
latency to hidden platform (learning trials) ([1]; wild type mice, 5 mg/kg/d): not altered
PHF-1 immunoreactivity area in cerebral cortex ([2]; 0.5-1.0 mm medial to injury site): dramatically reduced
GFAP IHC % area ([2]; three groups): did not result in groups differences
total Tau IHC mean intensity ([2]; three groups): did not show significant differences
hematological changes [3]: no significant hematological changes
serious adverse events, laboratory abnormalities, early terminations [3]: no apparent study-related serious adverse events (SAEs), significant laboratory abnormalities, or early terminations
basal p-SFK levels ([4]; cortical neurons, saracatinib 1 hour): suppressed
Aβo stimulation of target kinase (p-SFK) [4, 5]: fully prevented
Aβo-induced increase of eEF2 phosphorylation [4, 5]: fully blocked

Source: patent publication US11241434B2, “Compositions and methods for improving cognition in a subject” (Yale University, priority 2013, dated 2022)
